Experimental data as given in patent publication US4482554A, “Pharmaceutical compositions containing oxicam derivatives and process for their preparation” (Warner-Lambert Company, priority 1982, dated 1984).
Where a name gives a salt, the structure may show the parent alone. Read-outs that look alike come from different tables or passages of the source.

Legend:
[1] = solubility in water of stoichiometric oxicam salts; format: physicochemical
[2] = stability of solutions / precipitation of active material on storage; format: physicochemical
From the text: Especially in the case of oxicam derivatives of general formula (I), there is, in addition, the serious problem of instability of their solutions. Even when such compounds or the salts thereof have been brought into solution, these show a strong tendency, even after a relatively short time, to deposit particles and again to precipitate out a part of the active material. For injection solutions, this is naturally not acceptable.
There are thereby unexpectedly obtained, which was not to have been foreseen by the expert, highly concentrated solutions with a content of up to 30% and preferably of 10 to 20%, referred to the amount of active material used, which, even after storage for 15 months, display no deposition of active material. It is most surprising that this stability is fully retained even at low temperatures.

## Cc1cc(NC(=O)C2=C(O)c3ccccc3S(=O)(=O)N2C)no1
[1]; stoichiometric salt with methylglucamine, per milliliter of solution, read-out: active material per milliliter of solution
  solubility: 49 mg/mL
[2]; salt solution, over wide ranges
  dependence of degree of precipitation on concentration: not dependent upon the concentration
[2]; stoichiometric salts, precipitation of active material
  stability of the solution: unstable and again precipitate out considerable amounts of active material

## Cc1cc(NC(=O)C2=C(O)c3ccccc3S(=O)(=O)N2C)no1 [potassium salts]
[1]; after 4 months, decreased by precipitation from the solution, 175200 min
  solubility in water after storage: 20 mg/mL
[1]; shortly after preparation
  solubility in water, initial: about 30 mg/ml

## Cc1cc(NC(=O)C2=C(O)c3ccccc3S(=O)(=O)N2C)no1 [sodium salts of isoxicam]
[1]; shortly after preparation, read-out: solubility in water, initial
  solubility: ~24 mg/mL
